# Results taken from publication PMC9453454, “Design, synthesis, and anticancer activity of three novel palbociclib derivatives” (Frontiers in Oncology, 2022).
# Key:
# HepG2 cells = test: MTT in vitro cytotoxicity, HepG2; assay type: cell-based, human; conditions: HepG2 human liver cancer cells, MTT, 48 h; read-out: IC50
# Method: (§1) Human lung cancer cells (NCI-H460, NCI-H1299, and A549), human breast cancer cells (MDA-MB-231, MDA-MB-453, and MCF-7), human liver cancer cells (Huh-7 and HepG2), human colon cancer cells (coca-2, HT-29, and HCT116), human cervical cancer cells (HeLa), human normal lung cells (BEAS-2B), and human normal […] (MCF-10) were from the State Key Laboratory of Pharmaceutical Biotechnology, Nanjing University. NCI-H460 were cultured in 1640 medium containing 10% fetal bovine serum (FBS). MDA-MB-231 were cultured in L15 medium containing 10% FBS without CO2, and other cell lines were cultured in DMEM medium containing 10% FBS CO2 in the incubator.
# (§2) MTT assay was used to identify 14 different cell lines (human lung cancer cells NCI-H460, NCI-H1299, and A549; human breast cancer cells MDA-MB-231, MDA-MB-453, and MCF-7; human liver cancer cells Huh-7 and HepG2; human colon cancer cells coca-2, HT-29, and HCT116; and human cervical cancer cells HeLa) and 2 kinds of normal cell lines (human normal lung epithelial cells BEAS-2B, human normal breast epithelial cells MCF10-A) for quantitative analysis ([15]). In addition, 10-HCPT and palbociclib were used as positive control.
# (§3) Cells were harvested during the logarithmic growth phase and seeded into 96-well plates at a density of 2.0×10^3 cells/well. After being incubated for 24 h, the cells were treated with different concentrations of various culture programs for 48 h. Afterwards, 20 μl of MTT solution (5 mg/ml) was added to each well, and the cells were incubated in a 5% CO2 atmosphere at 37°C for another 4 h. Then, the supernatant was discarded, and the formazan crystals were dissolved in 150 μl DMSO. Subsequently, the absorbance was measured at 570 nm via a Tecan microplate reader. The concentration that caused 50% inhibition of cell viability (IC50) values was calculated by GraphPad Software. Triplicate experiments were performed in parallel for each concentration, and the results are shown as the mean ± SD. The inhibitory ratio was calculated using the following formula: inhibitory ratio (%) = [1−(mean absorbance of experiment group)/(mean absorbance of control group)] × 100.
# Huh-7 cells = test: MTT in vitro cytotoxicity, Huh-7; assay type: cell-based, human; conditions: Huh-7 human liver cancer cells, MTT, 48 h; read-out: IC50
# Method: as §1, §2, §3
# MDA-MB-453 cells = test: MTT in vitro cytotoxicity, MDA-MB-453; assay type: cell-based, human; conditions: MDA-MB-453 human breast cancer cells, MTT, 48 h; read-out: IC50
# Method: as §1, §2, §3
# NCI-H1299 cells = test: MTT in vitro cytotoxicity, NCI-H1299; assay type: cell-based, human; conditions: NCI-H1299 human lung cancer cells, MTT, 48 h; read-out: IC50
# Method: as §1, §2, §3
# MCF-7 cells = test: MTT in vitro cytotoxicity, MCF-7; assay type: cell-based, human; conditions: MCF7; MCF-7 human breast cancer cells, MTT, 48 h; read-out: IC50
# Method: as §1, §2, §3
# MDA-MB-231 cells = test: MTT in vitro cytotoxicity, MDA-MB-231; assay type: cell-based, human; conditions: MDA-MB-231 human breast cancer cells, MTT, 48 h; read-out: IC50
# Method: as §1, §2, §3
# Hela cells = test: MTT in vitro cytotoxicity, Hela; assay type: cell-based, human; conditions: Hela human cervical cancer cells, MTT, 48 h; read-out: IC50
# Method: as §1, §2, §3
# Coca-2 cells = test: MTT in vitro cytotoxicity, Coca-2; assay type: cell-based, human; conditions: Coca-2 human colon cancer cells, MTT, 48 h; read-out: IC50
# Method: as §1, §2, §3
# HCT116 cells = test: MTT in vitro cytotoxicity, HCT116; assay type: cell-based, human; conditions: HCT-116; HCT116 human colon cancer cells, MTT, 48 h; read-out: IC50
# Method: as §1, §2, §3
# A549 cells = test: MTT in vitro cytotoxicity, A549; assay type: cell-based, human; conditions: A549 human lung cancer cells, MTT, 48 h; read-out: IC50
# Method: as §1, §2, §3
# HT-29 cells = test: MTT in vitro cytotoxicity, HT-29; assay type: cell-based, human; conditions: HT-29 human colon cancer cells, MTT, 48 h; read-out: IC50
# Method: as §1, §2, §3
# BEAS-2B cells = test: MTT in vitro cytotoxicity, BEAS-2B normal lung epithelial cells; assay type: cell-based, human; conditions: BEAS-2B human normal lung epithelial cells, MTT, 48 h; read-out: IC50
# Method: as §1, §2, §3
# MCF10-A cells = test: MTT in vitro cytotoxicity, MCF10-A normal breast epithelial cells; assay type: cell-based, human; conditions: MCF-10A; MCF10-A human normal breast epithelial cells, MTT, 48 h; read-out: IC50
# Method: as §1, §2, §3
# NCI-H460 cells [1] = test: MTT in vitro cytotoxicity, NCI-H460; assay type: cell-based, human; conditions: NCI-H460 human lung cancer cells, MTT, 48 h; read-out: IC50
# Method: as §1, §2, §3
# [2] = tested on: PI3K, AKT, p-PI3K, and p-AKT; test: Western blot of PI3K/AKT pathway-related proteins in NCI-H460; assay type: cell-based, human; conditions: NCI-H460, 0, 0.5, 1, 2 μM for 24 h
# Method: (§4) NCI-H460 cells were harvested in logarithmic growth phase and seeded into six-well plates at a density of 5.0 × 10^3 cells/well. After being incubated for 48 h, the cells were harvested with 0.25% Trypsin after exposed to various concentrations of HP-1 (0, 0.5, 1, 2 μM), 10-HCPT (2 μM), and pabocini (2 μM) for 24 h.Then, precooled radio-immunoprecipitation assay (RIPA) lysates [10 mM Tris–HCl, 1 mM EDTA, 1% sodium dodecyl sulfate (SDS), 1 mM dithiothreitol (DTT), 0.1 mM phenylmethylsulfonyl fluoride (PMSF), protease inhibitors, 1% Nonidet P-40, pH 8] were added to them and placed on ice to lyse the cells for 30 min. After centrifugation at 10,000 rpm and 4°C for 10 min, the supernatant was collected to obtain soluble proteins. Lysates were centrifuged at 10,000 rpm for 20 min at 4°C, and the supernatant was collected.
# (§5) The absorbance value was measured at 562 nm using a microplate analyzer to calculate the protein content. An equal amount of protein was separated by 10% SDS–polyacrylamide gel electrophoresis (SDS-PAGE) gels and transferred onto PVDF membrane. […] Finally, the membrane was placed on the membrane carrier plate, and the bands were detected with enhanced chemiluminescence reagent to indicate the protein expression.
# NCI-H460 cells [3] = test: Annexin V/PI apoptosis by flow cytometry, NCI-H460; assay type: cell-based, human; conditions: same concentration (not given)
# Method: NCI-H460 cells were harvested in logarithmic growth phase and seeded into six-well plates at a density of 5.0 × 10^3 cells/well. After being incubated for 24 h, the cells were harvested with 0.25% Trypsin after exposed to various culture programs, washed with PBS, and re-suspended in 500 μl binding buffer. The experiment was triply replicated. Then, the cells were stained by adding to 5 μl Annexin V-FITC and 5 μl PI for15 min at 25°C in the dark. Finally, the cells were detected and analyzed using a flow cytometer with FlowJo 7.6.1.
# [4] = tested on: Cyclin D, CDK4, CDK6, Rb, and p-Rb; test: Western blot of Cyclin D-CDK4/6-Rb pathway proteins in NCI-H460; assay type: cell-based, human; conditions: NCI-H460, 0, 0.5, 1, 2 μM for 24 h
# Method: as §4, §5
SMILES,IC50 (HepG2 cells),IC50 (Huh-7 cells),IC50 (MDA-MB-453 cells),IC50 (NCI-H1299 cells),melting point,IC50 (MCF-7 cells),IC50 (MDA-MB-231 cells),IC50 (Hela cells),IC50 (Coca-2 cells),IC50 (HCT116 cells),IC50 (A549 cells),IC50 (HT-29 cells),IC50 (BEAS-2B cells),IC50 (MCF10-A cells),IC50 (NCI-H460 cells [1]),further results
"CC[C@]1(O)C(=O)OCc2c1cc1n(c2=O)Cc2cc3cc(OC(=O)CCC(=O)N4CCN(c5ccc(Nc6ncc7c(C)c(C(C)=O)c(=O)n(C8CCCC8)c7n6)nc5)CC4)ccc3nc2-1 [HP-2, (R)-4-ethyl-4-hydroxy-3,14-dioxo-3,4,12,14-tetrahydro-1H-pyrano[3’,4’:6,7] indolizino[1,2-b]quinolin-9-yl4-(4-(6-((6-acetyl-8-cyclopentyl-5-methyl-7-oxo-7,8-dihydropyrido[2,3-d]pyrimidin-2-yl)amino)pyridin-3-yl)piperazin-1-yl)-4-oxobutanoate]",8.11 ± 1.34 µM,16.5 ± 1.76 µM,6.38 ± 0.97 µM,3.35 ± 0.01 µM,48.9 to 50.5 °C,16.7 ± 0.59 µM,16.5 ± 0.82 µM,7.82 ± 2.34 µM,18.8 ± 0.46 µM,19.6 ± 1.21 µM,5.24 ± 0.37 µM,11.6 ± 0.57 µM,34.8 ± 0.44 µM,31.38 ± 0.23 µM,1.32 ± 0.01 µM,
CC(=O)c1c(C)c2cnc(Nc3ccc(N4CCNCC4)cn3)nc2n(C2CCCC2)c1=O [Palbociclib],7.55 ± 1.49 µM,32.1 ± 1.93 µM,5.15 ± 1.04 µM,5.09 ± 0.24 µM,,8.73 ± 0.33 µM,11.7 ± 1.75 µM,21.35 ± 0.13 µM,35.9 ± 0.41 µM,31.6 ± 1.21 µM,6.16 ± 0.19 µM,16.8 ± 0.39 µM,38.8 ± 0.59 µM,39.7 ± 0.57 µM,2.95 ± 0.11 µM,
"CC[C@]1(O)C(=O)OCc2c1cc1n(c2=O)Cc2cc3cc(OC(=O)CCCC(=O)N4CCN(c5ccc(Nc6ncc7c(C)c(C(C)=O)c(=O)n(C8CCCC8)c7n6)nc5)CC4)ccc3nc2-1 [HP-1, (R)-4-ethyl-4-hydroxy-3,14-dioxo-3,4,12,14-tetrahydro-1H-pyrano[3’,4’:6,7] indolizino[1,2-b]quinolin-9-yl5-(4-(6-((6-acetyl-8-cyclopentyl-5-methyl-7-oxo-7,8-dihydropyrido[2,3-d]pyrimidin-2-yl)amino)pyridin-3-yl)piperazin-1-yl)-5-oxopentanoate]",2.57 ± 0.42 µM,9.48 ± 1.59 µM,5.28 ± 0.81 µM,2.29 ± 0.02 µM,44.5 to 46.4 °C,10.3 ± 1.68 µM,15.3 ± 2.51 µM,5.46 ± 0.08 µM,15.2 ± 0.54 µM,17.1 ± 0.31 µM,3.41 ± 0.22 µM,12.4 ± 1.62 µM,36.4 ± 0.43 µM,32.4 ± 1.33 µM,0.96 ± 0.01 µM,"expression of PI3K, AKT, p-PI3K, and p-AKT [2]: decreased; Q1 (annexin V/PI quadrant) (NCI-H460 cells [3]; NCI-H460, 12h): 0.32; Q2 (annexin V/PI quadrant) (NCI-H460 cells [3]; NCI-H460, 12h): 9.93; Q3 (annexin V/PI quadrant) (NCI-H460 cells [3]; NCI-H460, 12h): 13.4; Q4 (annexin V/PI quadrant) (NCI-H460 cells [3]; NCI-H460, 12h): 76.4; Q1 (annexin V/PI quadrant) (NCI-H460 cells [3]; NCI-H460, 24h): 0.80; Q2 (annexin V/PI quadrant) (NCI-H460 cells [3]; NCI-H460, 24h): 33.7; Q3 (annexin V/PI quadrant) (NCI-H460 cells [3]; NCI-H460, 24h): 31.4; Q4 (annexin V/PI quadrant) (NCI-H460 cells [3]; NCI-H460, 24h): 34.0; Q1 (annexin V/PI quadrant) (NCI-H460 cells [3]; NCI-H460, 36h): 0.66; Q2 (annexin V/PI quadrant) (NCI-H460 cells [3]; NCI-H460, 36h): 61.8; Q3 (annexin V/PI quadrant) (NCI-H460 cells [3]; NCI-H460, 36h): 33.6; Q4 (annexin V/PI quadrant) (NCI-H460 cells [3]; NCI-H460, 36h): 3.91; Protein expressions of Cyclin D, CDK4, CDK6, Rb, and p-Rb [4]: significantly decreased"
